In paper PMC10804683, “Identification of the pyridoxal 5′‐phosphate allosteric site in human pyridox(am)ine 5′‐phosphate oxidase” (Protein Science : A Publication of the Protein Society, 2024):
Positions count from the first letter of the chain named.

Experiments:
human PNPO wild type = molecular target: T1, human PNPO wild type (Homo sapiens, UniProt Q9NVS9)
T1 sequence (Q9NVS9 1-261): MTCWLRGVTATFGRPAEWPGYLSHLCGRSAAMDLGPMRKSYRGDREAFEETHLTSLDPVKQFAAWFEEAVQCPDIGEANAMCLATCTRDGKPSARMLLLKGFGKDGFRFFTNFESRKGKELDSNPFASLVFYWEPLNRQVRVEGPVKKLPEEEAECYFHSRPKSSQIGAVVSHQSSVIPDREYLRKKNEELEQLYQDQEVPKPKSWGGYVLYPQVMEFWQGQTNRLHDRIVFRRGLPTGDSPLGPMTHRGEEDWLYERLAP

human PNPO F48A variant = molecular target: T2, human PNPO F48A variant (Homo sapiens, UniProt Q9NVS9, F48A); test: PMP oxidation kinetics, F48A variant; conditions: 50 mM Tris–HCl pH 7.6, 37°C, 2 μM enzyme
T2 sequence (Q9NVS9 1-261 F48A): T1 sequence (Q9NVS9 1-261) with F48A

PMP oxidation kCAT (human PNPO wild type; 50 mM Tris–HCl pH 7.6, 37°C, 2 μM enzyme): 0.135 ± 0.00283 s⁻¹ | KM for PMP relative to KM for PNP (human PNPO wild type; Tris–HCl pH 7.6, 37°C): 25 fold | PMP oxidation kCAT (human PNPO F48A variant): 0.1785 ± 0.003 s⁻¹
SMILES: Cc1ncc(COP(=O)(O)O)c(CN)c1O [PMP, pyridoxamine 5′‐phosphate]
